Measurements as given in a melting point compilation (Tetko et al.; mined from patent text by program, amines drawn as free bases though some values may be those of a salt).

Compared with `CCCCCCCCCCCCCCCCCNC(=O)O[C@@H]1CCCO[C@H]1CO` (relative stereo), `CCC(CC)C(=O)OC1CC(C)C=C2C=CC(C)C(CCC3CC(O)CC(=O)O3)C21` (centres undefined) is higher in melting point: 84 to 86 °C for the first, 120 to 122 °C for the second.

Compared with `FC(F)Oc1ccc(CN(C(=Nc2ccccc2)N(Cc2ccc(OC(F)F)cc2)C2CCCC2)C2CCCC2)cc1`, `O=C1O[C@H](c2ccccc2)[C@H](c2ccccc2)N[C@H]1Cc1ccccc1C1CCCCC1` is higher in melting point: 86.5 to 88 °C for the first, 159 to 160 °C for the second.

First: CONC(=O)c1ccccc1S(=O)(=O)NC(=O)Nc1nc(C)cc(C)n1
Second: CS(=O)(=O)Nc1c(CC(=O)O)cccc1Oc1ccccc1Cl
The melting point of the first is higher: 218 °C for the first, 159 to 163 °C for the second.

Compared with `Cc1nc[nH]c1CSCCNc1nc(C)c(Cc2ccccc2)c(=O)[nH]1`, `CC(C)(O)CN1c2cccnc2C(N)=CC1Cc1ccccc1` (centres undefined) is higher in melting point: 140 to 142 °C for the first, 211 to 213 °C for the second.

First: O=C(Nc1ccccn1)c1c(C(F)(F)F)nc(-c2ccccc2)c(-c2ccccc2)c1O
Second: O=C(O)CCCOc1cccc2c1Cc1sc(SCCC(c3ccccc3)c3ccccc3)nc1-2
The melting point of the first is higher: 208 to 210 °C for the first, 86 to 88 °C for the second.

First: C#CCN(C)c1nccc(Oc2ccc(NC(=O)c3cc(F)cc(N4CCOCC4)c3)c3ccccc23)n1
Second: CSC(=S)OCc1cn(-c2ccc(N3CCOCC3)c(F)c2)nn1
The melting point of the first is lower: 97 to 98 °C for the first, 118 °C for the second.

First: CN(C)CCNC(=O)c1cn(C)c(=O)c2nc3ccccc3nc12
Second: COc1ccc2cc3c(=O)n(C)cc(C(=O)NCCN(C)C)c3nc2c1Cl
The melting point of the first is higher: 215 to 218 °C for the first, 209 to 212 °C for the second.

Compared with `CC(C)CC(=O)N1CCC(NC(=O)c2ccccc2Oc2ccc(Cl)cc2Cl)CC1`, `O=C(O)c1ccc2[nH]c3c(c2c1)CC(N1C(=O)c2ccccc2C1=O)CC3` (centres undefined) is higher in melting point: 57 to 60 °C for the first, 345 to 348 °C for the second.

Compared with `OC[C@H](O)[C@@H](O)[C@H](O)[C@H](O)C=NN(Cc1ccccc1)c1ccccc1`, `CC(C)(C)OC(=O)CN(C(=O)CNC(=O)Nc1cnc2ccccc2c1)c1ccccc1` is higher in melting point: 124 to 128 °C for the first, 191 °C for the second.

First: C=CCCCCOc1ccc(OCCCCC=C)cc1
Second: CCCCOc1ccc(NC(=O)c2cnc(C(=O)NCC(=O)OCC)c(Cl)c2)cc1
The melting point of the first is lower: 29 to 30 °C for the first, 177 to 179 °C for the second.

Compared with `Cc1cccc(C(=O)O)c1N(C)S(=O)(=O)c1ccc(OCCCCNC(=O)c2ccc3c(c2)OCO3)cc1`, `CN(C)c1ncc(C(=O)CNCC(O)c2cccc(OC(=O)C(C)(C)C)c2)c(-c2ccccc2)n1` (centres undefined) is higher in melting point: 110 °C for the first, 145 to 146 °C for the second.

Compared with `CCOc1ccc2cc(-c3nn(C(C)c4oc5ccccc5c(=O)c4-c4cccc(F)c4)c4ncnc(N)c34)ccc2c1` (centres undefined), `O=Cc1ccc(OCc2coc(-c3ccccc3)n2)cc1` is lower in melting point: 286 to 290 °C for the first, 94 to 96 °C for the second.

First: COC(=O)c1ccc(Cn2cnc3ccccc32)cc1
Second: COC(=O)c1ccc(Cc2cn(C)c3ccc([N+](=O)[O-])cc23)c(OC)c1
The melting point of the first is lower: 94 to 95 °C for the first, 144 to 146 °C for the second.

Going from `O=C1CNC(=O)[C@@H](CO)N1` to `CC12CC3CC(C1)CC(CNC(=O)n1cc(F)c(=O)[nH]c1=O)(C3)C2`, the melting point falls from 218 °C to 172 °C.

First: CC(C)NC(=NC(=O)OC(C)(C)C)N=C1NC(=O)C(=O)N1c1ccc(Cl)c(Cl)c1
Second: CC(C)(C)OC(=O)CC[C@H](NC(=O)c1ccc(N(CCCl)CCCl)cc1)C(=O)OC(C)(C)C
The melting point of the first is higher: 227 °C for the first, 114 to 116 °C for the second.

`CC(C)(C)OC(=O)N(C[C@H](O)COc1ccc(O)cc1)C1CNC1` and `CCOC(=O)/C=C(\c1ccc(F)cc1)c1cc(OC)c(OC)c(OC)c1` cannot be ordered by melting point: 130 to 134 °C for the first, 133 to 135 °C for the second.

Compared with `CON1C=C2N=Nc3cc(C)cnc3N2C1`, `CCOC(=O)c1cnc2cc([N+](=O)[O-])ccc2n1` is higher in melting point: 213 to 214 °C for the first, 221 to 223 °C for the second.

First: CN1CCC2(CC1)OC(c1ccccc1)c1cc(O)ccc12 (centres undefined)
Second: O=C(CC1CC(OC(=O)c2ccccc2)CCC1=O)c1ccccc1 (centres undefined)
The melting point of the first is higher: 193 to 200 °C for the first, 107 to 108 °C for the second.

Compared with `CN(c1ccc(O)cc1)c1ncnc2cc(Cl)ccc12`, `O=C(Nc1ccc(-n2nc(C(F)(F)F)cc2C(F)(F)F)cc1)c1nc(Cl)ccc1Cl` is lower in melting point: 165 °C for the first, 118 to 119 °C for the second.

Compared with `CCCCc1nc(C(=O)OC)c(C(=O)OC)[nH]1`, `COc1cc(OC)c(NC(=O)CBr)c(OC)c1` is higher in melting point: 88 °C for the first, 160 to 161 °C for the second.

First: COC(=O)C(Cc1cc(C)c(Oc2ccc(O)c(Cc3ccc(OC)nc3)c2)c(C)c1)NC(C)=O (centres undefined)
Second: CCOC(=O)c1c(CN2CCCC2)nc2cc(OC)c(OC)cc2c1-c1ccc(OC)c(OC)c1
The melting point of the first is higher: 186 to 188 °C for the first, 139 to 140 °C for the second.

Compared with `CC(C)Oc1cc2c(cc1O)C(=O)CC(C)(C)O2`, `COC(=O)Cn1c(=O)c(=O)[nH]c2cc(C(F)(F)F)c(-n3cccc3)cc21` is higher in melting point: 138 to 139 °C for the first, 141 to 142 °C for the second.

First: CCc1noc(-c2cn(-c3c[nH]c4ccccc34)cn2)n1
Second: CC(=O)NCC1CC(c2ccc(-n3cccc3)c(F)c2)=NO1 (single isomer, unassigned; (-))
The melting point of the first is higher: 198 to 199 °C for the first, 176 to 177 °C for the second.

Compared with `COc1ccc(-c2nc3nccnc3[nH]2)c(OCC#N)c1`, `C[Si](C)(C)NC(=O)c1ccccc1` is lower in melting point: 232 to 233 °C for the first, 111 to 115 °C for the second.

For `CC(C)(CCC(F)(F)C(F)(F)C(F)(F)C(F)(F)C(F)(F)C(F)(F)C(F)(F)C(F)(F)F)OC(=O)N1CCC(C(=O)O)CC1`, the melting point was 140 to 142 °C.
